These results are taken from patent US6352959B1, “Thiochromanoylpyrazolone derivatives” (BASF Aktiengesellschaft, priority 1998, dated 2002).

Molecules are shown by their SMILES.

One data set relates to Polygonum persicaria. Briefly: greenhouse herbicidal test. The class given is in vivo. Conditions: rate and mode not restated in the sentence. The text has this:
(§1) The seeds of the test plants were sown separately for each species. For the post-emergence treatment, the test plants were first grown to a plant height of from 3 to 15 cm, depending on the plant habit, and only then treated with the active ingredients which had been suspended or emulsified in water. For this purpose, the test plants were either sown directly and grown in the same containers, or they were first grown separately as seedlings and transplanted into the test containers a few days prior to treatment. The application rate for the post-emergence treatment was 0.25 or 0.125 kg of a.s. (active substance) per ha. Depending on the species, the plants were kept at from 10 to 25° C. or from 20 to 35° C. The test period extended over 2 to 4 weeks. During this time, the plants were tended and their response to the individual treatments was evaluated. Evaluation was carried out using a scale from 0 to 100. 100 means no emergence of the plants, or complete destruction of at least the above-ground parts, and 0 means no damage or normal course of growth. [table]

In a further data set the test system is Setaria viridis. The experiment in a line: greenhouse herbicidal test. The class given is in vivo. Conditions: rate and mode not restated in the sentence.
Excerpt: as §1

Another data set has as its system Avena fatua. The experiment in a line: greenhouse herbicidal test. The class given is in vivo. Conditions: rate and mode not restated in the sentence.
Excerpt: as §1

The next data set has as its system Sinapis alba. Briefly: greenhouse herbicidal test. The class given is in vivo. Conditions: rate and mode not restated in the sentence.
Excerpt: as §1

On to `CCCOCc1c(C(=O)c2cnn(C)c2O)ccc2c1S(=O)(=O)CCC2(C)C` [Compound 2.17, 4-{[4,4-Dimethyl-8-propoxymethyl-1,1-dioxothiochroman-7-yl]-carbonyl}-5-hydroxy-1-methylpyrazole], for which the melting point is 84 °C. The “activity against the weed” value with Polygonum persicaria is on record as “very good activity”. Also, the “activity against the weed” value in the data set with Setaria viridis was “very good activity”. Moreover, the “activity against the weed” value with Avena fatua was “very good activity”. Besides, the “activity against the weed” value in the data set on Sinapis alba is given as “very good activity”.
